SMILES strings stand for the structures. ≈ marks a conversion by molar mass, not a printed value.

MIC data for six compounds are collected here from ChEMBL document CHEMBL1944507, “Structure-activity relationships for amide-, carbamate-, and urea-linked analogues of the tuberculosis drug (6S)-2-nitro-6-{[4-(trifluoromethoxy)benzyl]oxy}-6,7-dihydro-5H-imidazo[2,1-b][1,3]oxazine (PA-824)” (J Med Chem, 2012).

The test system of this assay is Mycobacterium tuberculosis variant bovis. Put plainly: Antimicrobial activity against Mycobacterium bovis. It is filed as functional.
As a reminder, the MIC is the lowest concentration that inhibits growth of the organism. The low end stands for a more susceptible organism, the high end for a less susceptible organism. Take `O=C(N[C@@H]1COc2nc([N+](=O)[O-])cn2C1)c1ccc(OC(F)(F)F)cc1`: the MIC was 1.34 µM (≈ 0.499 µg/mL).

The compound `O=C(N[C@@H]1COc2nc([N+](=O)[O-])cn2C1)OCc1ccc(OC(F)(F)F)cc1` gave a minimum inhibitory concentration (MIC) of 0.037 µM (≈ 0.0149 µg/mL).

On to `O=C(Nc1ccc(OC(F)(F)F)cc1)N[C@@H]1COc2nc([N+](=O)[O-])cn2C1`, for which the minimal inhibitory concentration (MIC) is 0.039 µM (≈ 0.0151 µg/mL).

`O=C(Nc1ccc(OC(F)(F)F)cc1)O[C@@H]1COc2nc([N+](=O)[O-])cn2C1` had an MIC of 0.039 µM (≈ 0.0151 µg/mL).

Regarding `O=C(NCc1ccc(OC(F)(F)F)cc1)O[C@@H]1COc2nc([N+](=O)[O-])cn2C1`, inhibition of growth (MIC) required 0.075 µM (≈ 0.0302 µg/mL).

As to `O=[N+]([O-])c1cn2c(n1)OC[C@@H](OCc1ccc(OC(F)(F)F)cc1)C2` [PRETOMANID], the MIC was determined as 0.167 µM (≈ 0.06 µg/mL).
